From patent US9187539B2, “Compositions having antiangiogenic activity and uses thereof” (The Johns Hopkins University, priority 2005, dated 2015) come the findings set out here.

Assay [1] has as its system human umbilical vein endothelial cells (HUVECs). Nature of the assay: HUVEC proliferation assay (WST-1), 2- and 4-day, 5,000 cells per well. Type of assay: cell-based. The settings on record: for peptide concentration at which maximum activity was observed: day not specified; for concentration-response profile in words: 2- and/or 4-day assay. As to the method:
The effect of the various peptides on cell proliferation was assayed, by administering the peptides to human umbilical vein endothelial cells (HUVECs) in culture. 45 peptides belonging to four distinct families of proteins including the thrombospondin-1 containing proteins, the C-X-C chemokines, collagen derived peptides and peptides from tissue inhibitors of metalloproteinases were tested. The potency of each of the peptides was tested using the proliferation assay at 2 days and 4 days following administration of the peptides and a similar assay using a different cell density at 3 days. In the four-day experiments, the cell medium was changed after the second day of incubation and the peptide was replaced at the initial concentration together with the medium. TNP-470 is an antiangiogenic compound that was used as a positive control for assessing anti-angiogenic efficacy. The activity of each polypeptide was, therefore, expressed as a percentage of TNP-470 activity, i.e., the optical density obtained experimentally is scaled such that the negative control is 0% and the positive control is 100% as explained below (FIG. 4). Each plate included a well having HUVEC cells that received 0.1 μg/ml TNP-470. For example, a peptide having the same effect on endothelial cell proliferation would have 100% of the activity of TNP-470. Note that activity could exceed 100%. In this assay, the effects of the predicted anti-angiogenic fragments on the ability of HUVECs to proliferate was characterized. […] A commonly used methodology to test for proliferation is to monitor the viability and metabolic activity of endothelial cells, in the presence of the anti-angiogenic fragments at different concentrations and various time steps. The cell proliferation reagent WST-1 was used as a substrate/assay to measure the metabolic activity of viable cells. WST-1 is a colorimetric, non-radioactive assay and can be performed in a microplate. It is suitable for measuring cell proliferation, cell viability or cytotoxicity. The assay is based on the reduction a red tetrazolium salt, WST-1, by viable, metabolically active, cells to form the yellow formazan crystals soluble in the cell medium. […] The cells are cultured described above. Once cells have reached 80% confluence they are trypsinized and resuspended in EGM-2. The cell density is estimated using a hemocytometer. All of the endothelial cells used were from passage 4 to passage 8. The proliferation assay involved two steps. During the first step the cells, approximately 5,000 cells per well for a 96-well plate, were seeded without any extracellular matrix substrate on the wells overnight (8 hours). The initial cell culture medium was removed using a multichannel pipetor and the candidate peptides were applied. A logarithmic scale of four different concentrations of 0.01 μg/ml, 0.1 μg/ml, 1 μg/ml and 10 μg/ml of each peptide was used. Each of the concentrations was tested in quadruplicate. The viability of the cells was challenged at 2 and 4 days upon the application of the peptide. As a positive control for decreased viability, 0.1 μg/ml of TNP-470 (O-(chloro-acetyl-carbamoyl) fumagillol, a synthetic analogue of fumagillin; TNP-470 was provided by NCI, was provided along with the medium, and as a negative control for normal viability, the cells were cultured without the addition of any agent. The cells were then incubated with 10 μl per well of the red WST-1 reagent for approximately 2 to 4 hours. During this incubation period, viable cells converted, in their mitochondria, the red WST-1 to the yellow formazan crystals which dissolve in the medium. The second step of the assay involved the quantification of the changes in proliferation which was performed by measuring the change in color after lysing the cells. The samples were read using the ELISA plate reader Victor3 V (Perkin Elmer) at a wavelength of […]. The amount of color produced is directly proportional to the number of viable cells. […]

For assay [2] the test system is unchanged. Nature of the assay: HUVEC proliferation assay (WST-1), 3-day, 2,000 cells per well. Type of assay: cell-based. The following applies: 3-day assay; for anti-proliferative activity (maximum or stated level), scaled so that TNP-470 = 100%: 0.01-30 μg/ml; for anti-proliferative activity in words: overall. As for the experimental part:
In addition to the 2 and 4 day proliferation experiment where 5,000 cells per well were seeded, the effects of the peptides on the proliferating ability of HUVECs were also studied using cells seeded at a density of 2,000 cells per well. This lower cell seeding density allowed the experiment to be extend for an additional day without changing the cell medium. The effects of the peptides when applied to the cells for 3 consecutive days is also reported herein. The proliferation assay again involved two steps. During the first step 2,000 cells per well for a 96-well plate were seeded without any extracellular matrix substrate on the wells overnight (8 hours). The initial cell culture medium was removed using a multichannel pipetor. To synchronize the cells, the cells were serum starved for 4 hours and the candidate peptides were applied. During serum starvation the cell culture medium was changed from a “full” medium to the “basal” medium, which contained no growth factors or serum. Serum starvation for 4 hours had no effect on the proliferation of the cells. For this assay, the logarithmic scale of four different concentrations of 0.01 μg/ml, 0.1 μg/ml, 1 μg/ml and 10 μg/ml of peptide was used. In addition, a larger concentration of 30 μg/ml peptide was also applied. Each of the concentrations was again tested in quadruplicate. After the third day of peptide application the WST-1 dye was applied for approximately 2 to 4 hours (usually after 3 hours the color saturates). The proliferation was later tested on the ELISA plate reader as described for the 2 and 4 day assay. Note that the 2- and 4-day and the 3-day protocols differed in that 5,000 cells/well versus 2,000 cells/well seeded, respectively.

The test system of assay [3] is angiogenesis (endothelial cell invasion of basement membrane extract with bFGF and VEGF). Nature of the assay: Directed in vivo angiogenesis assay (DIVAA), subcutaneously implanted angioreactors. Further details: species or system C57BL/6 mice. The following applies: 200 μg/ml peptide with bFGF and VEGF in the matrix; 11 days after implantation. As for the experimental part:
A directed in vivo anti-angiogenesis assay (DIVAA) was used to test the anti-angiogenic efficacy of the alpha 5 fibril of collagen type 4, which had the sequence: SAPFIECHGRGTCNYYANS (SEQ ID NO: 91). […] The peptide was solubilized in buffer solution at 200 μg/ml without an organic solvent. DIVAA is a reproducible and quantitative in-vivo method of assaying angiogenesis. It involves preparation of silicon cylinders of 20 μl volume, closed on one side, filled with some type of extracellular matrix (for example Matrigel or BME-basement membrane extract) with or without premixed angiogenic factors. These angioreactors are then implanted subcutaneously in the dorsal flank of mice. Accompanied with the onset of angiogenesis, vascular endothelial cells migrate into the extracellular matrix and form vessels in the angioreactor. […]
To obtain a quantitative assessment of the angiogenic invasion, the content of the angioreactors was removed from the cylinder and the endothelial cells were stained using FITC-Lectin (FIG. 38A) Once the tubes were extracted from the mice, the inside of the angioreactors was rinsed with 300 μl of a 36 kDa, bacillus-derived neutral metalloproteinase which is commercially available as Cellsperse (Trevigen, Inc., Gaithersburg, Md.), an extracellular matrix digesting solution and the content of the reactors as well as the rinse was transferred into a microtube. […]

The mark [4] stands for this setting: 4 days of peptide application, 0.01-10 μg/ml.

As to “SAPFIECHGRGTCNYYANS [SEQ ID NO: 91, α5CIV AAC27816.1: 1626-1644]”, the “anti-proliferative activity in words” value in assay [1] (2- and 4-day assay, overall) is “low activity”. The “anti-proliferative activity in words at high peptide concentration” value in assay [2] (high/highest applied concentration (30 μg/ml where stated)) is “activity increases”. In addition, in assay [3], the “endothelial cell invasion of the extracellular matrix in angioreactors” value is “Fewer endothelial cells invaded the extracellular matrix” and the “inhibition of angiogenesis in angioreactors” value was “strongly inhibited angiogenesis”.
As for “TQWTSCSKTCNSGTQSRHR [SEQ ID NO: 38, C6 AAB59433.1: 30-48]”, in assay [1] (setting [4]), the “anti-proliferative activity (maximum or stated level), scaled so that TNP-470 = 100%” value was determined as 35%. Moreover, in assay [2], the “concentration-response profile in words” value is on record as “biphasic” and the “anti-proliferative activity (maximum or stated level), scaled so that TNP-470 = 100%” value is on record as 25%.
Regarding “TSWSQCSKTCGTGISTRV [SEQ ID NO: 42, CYR61 AAR05446.1: 234-251]”, the “peptide concentration at which maximum activity was observed” value in assay [1] (2- and 4-day assay) worked out at 0.01 µg/mL; in assay [2] it was 0.1 µg/mL. Besides, the “anti-proliferative activity (maximum or stated level), scaled so that TNP-470 = 100%” value was 30% in assay [1] (2- and 4-day assay, day not specified or constant throughout the four days); 30% in assay [2]. In assay [1], the “concentration-response profile in words” value is reported as “biphasic”.
As to “WDECSATCGMGMKKRHR [SEQ ID NO: 72, VSGP/F-spondin BAB18461.1: 567-583]”, the “anti-proliferative activity in words” value in assay [1] (2 days of peptide application) was “not statistically significant”; in assay [2], “exhibited activity”. In addition, in assay [1] (setting [4]), the “anti-proliferative activity (maximum or stated level), scaled so that TNP-470 = 100%” value came to 10%.
Regarding “WTRCSSSCGRGVSVRSR [SEQ ID NO: 66, THSD6 AAH40620.1: 44-60]”, in assay [1] (2- and 4-day assay), the “peptide concentration at which maximum activity was observed” value is 0.1 µg/mL. For the same sequence, the “concentration-response profile in words” value in assay [1] and in assay [2] was “biphasic” each time. Moreover, the “anti-proliferative activity (maximum or stated level), scaled so that TNP-470 = 100%” value in assay [1] (2 days of peptide application, 0.01-10 μg/ml) was “approximately 20%”; in assay [2], approximately 30%.
With “YCNIHQVCHYAQRNDRSYWL [SEQ ID NO: 86, α4CIV CAA56943.1: 1524-1543]”, in assay [1] (2- and 4-day assay, overall), the “anti-proliferative activity in words” value is “low anti-proliferative activity”. In assay [2], the “concentration-response profile in words” value was “increasing at higher peptide concentrations” and the “anti-proliferative activity in words” value was “greater”.
On to “YCNINEVCHYARRNDKSYWL [SEQ ID NO: 93, α6CIV CAI40758.1: 1526-1545]”, for which the “anti-proliferative activity (maximum or stated level), scaled so that TNP-470 = 100%” value in assay [1] (setting [4]) was found to be 15%. In addition, the “anti-proliferative activity, TNP-470 = 100%” value in assay [2] (30 μg/ml peptide) is listed as 80%.
